# In US12036315B2, “Pharmaceutical composition for oral administration comprising enzalutamide” (Astellas Pharma Inc., priority 2017, dated 2024):
# Test: Solubility of enzalutamide in water
# Format: physicochemical
# Settings: 20° C.±5° C.
# Description: The term “to improve solubility” as used herein means that the solubility, the dissolved concentration, or the dissolved rate of enzalutamide in a solvent is increased.
# It is possible to obtain good solubility and/or good dissolution properties by applying the technology of the present invention. Further, it is possible to obtain good oral absorbability by applying the technology of the present invention.
smiles,measurement,value
"CNC(=O)c1ccc(N2C(=S)N(c3ccc(C#N)c(C(F)(F)F)c3)C(=O)C2(C)C)cc1F [Enzalutamide, 4-{3-[4-cyano-3-(trifluoromethyl)phenyl]-5,5-dimethyl-4-oxo-2-sulfanylideneimidazolidin-1-yl}-2-fluoro-N-methylbenzamide]",solubility,2 µg/mL
